Measurements taken from patent US7612073B2, “Methods of administering tetrahydrobiopterin, associated compositions, and methods of measuring” (Biomarin Pharmaceutical Inc., priority 2007, dated 2009).
“Also recorded” adds a separate entry of the source. Each block holds one molecule with its values, some of them ahead of it.

Experiments:
[1] = relative bioavailability of dissolved vs intact tablets and effect of food in healthy subjects; format: in vivo, human
Text: The primary objectives of the study were: (1) to evaluate the relative bioavailability of tetrahydrobiopterin (BH4, sapropterin dihydrochloride) when administered after dissolution of tablet(s) in water or administered as intact tablet(s); (2) to compare the effect of food on the bioavailability of BH4 in healthy subjects. The secondary objective of the study was to assess the safety and tolerability of single oral doses of BH4 in healthy subjects.
This study was an open-label, randomized, three-treatment, six-sequence, three-period crossover study in which 30 subjects were to complete 3 single-dose dosing periods and were randomized to one of six sequence groups (Groups 1, 2, 3, 4, 5, and 6): […]
where all dosing groups received BH4 10 mg/kg orally as follows: a: administered after dissolution of tablet(s) in water given in fasting under fasting conditions b: administered as intact tablet(s) given in fasting under fasting conditions c: administered as intact tablet(s) given 30 minutes after beginning to ingest a high-calorie, high-fat meal in fed conditions Each subject received a single dose of 10 mg/kg of BH4 during each treatment period. A washout period of at least seven days separated each dose administration. A post-study assessment was performed 5-7 days after discharge of the third treatment period. Blood samples for Pharmacokinetic (PK) analysis were drawn at scheduled collection times during each study period: within 30 minutes prior to dose, and 0.5, 1.0, 1.5, 2.0, 2.5, 3.0, 3.5, 4.0, 5.0, 6.0, 8.0, 10.0, 12.0, 18.0, and 24.0 hours post-dose.
Blood (plasma) pharmacokinetic (PK) characteristics were assessed after each dose of study medication. All subjects remained seated in an upright position for 4 hours post-dose. The blood samples were drawn within 30 minutes prior to dose and at 0.5, 1.0, 1.5, 2.0, 2.5, 3.0, 3.5, 4.0, 5.0, 6.0, 8.0, 10.0, 12.0, 18.0, and 24.0 hours post dose. Samples were collected in appropriately labeled 6 mL K2-EDTA purple top Vacutainer® tubes. Blood samples were centrifuged at approximately 3000 rpm at 4° C. for 10 minutes. From the resulting plasma, exactly 1 mL was removed from each sample using a pipet, and placed into an aliquot tube containing 0.1% w/v dithioerythritol. The sample was capped and vortexed for approximately 10 seconds using a VWR Mini Vortexer at speed 6. After completion of these steps, the sample was flash frozen in an isopropyl/dry ice bath and placed in a −70° C. freezer pending analysis.
Pharmacokinetic (PK) analysis of plasma BH4 concentration-time data was performed using non-compartmental methods to obtain estimates of the following PK parameters: • Peak plasma concentration (Cmax) and time to peak concentration (Tmax), obtained directly from the data without interpolation; • λz, the apparent terminal elimination rate constant, determined by log-linear regression of the terminal plasma concentrations; • Area under the plasma concentration-time curve from time zero to the time of last measurable concentration [AUC(0-t)], calculated by the linear trapezoidal method; • The apparent elimination half-life (t½), calculated as 0.693/λz; • Area under the plasma concentration-time curve from time 0 to infinity [AUC(inf)] where AUC(inf)=AUC(0-t)+Ct/λz and Ct is the last measurable concentration. Estimation of Absorption Rate […]
Comparison of the pharmacokinetic parameters Cmax, AUC(0-t), and AUC(inf) for BH4 was conducted using an analysis of variance (ANOVA) model with sequence, subject within sequence, treatment, and period as the classification variables using the natural logarithms of the parameters as the dependent variables. The comparisons of interest were between the dissolved and intact tablet in the fasted state and the intact tablet in the fed and fasted states.

physchem [2] = format: physicochemical; details: for Estimated t1/2 Based on t1/2 Obtained at pH 3 (Min) / half-life: buffer
Method: However, administration as a solid or semi-solid dosage form and/or with a high-fat meal may maximize bioavailability by increasing the residence time of BH4 in the acidic milieu of the stomach and upper gastrointestinal tract (GIT) where BH4 is chemically stable. […] At pH 3.1, which is within realm of the typical pH of the stomach in normal volunteers, the stability of BH4 at a concentration of 1 mg/mL is over 3 hours. The chemical stability of BH4 may further increase when the pH of the stomach drops below pH 3.1. Therefore prolonged stomach residence time provides intact drug to the stomach wall for absorption, whereas rapid emptying into the intestine degrades BH4 and is thus not available to be absorbed.
In general, the objective of this study was to evaluate the stability of BH4 in buffer solutions ranging in pH from pH 1 to 7 (See Table 15) and in the presence and absence of antioxidants and with or without inert gas in the reaction solutions (See Table 16).
The stability of BH4 is expected to be temperature-dependent. Therefore, the compound stability was evaluated at 2-8° C., 25° C., 30° C. and 37° C. to support the determination of predictive long-term shelf lives for the compound at different temperatures. Determination of the stability of the compound at the physiologic temperature of 37° C. provides data to support the estimation of the stability lifetime of a formulated oral dosage form in the absorptive regions of the GI tract.
Based on this approximation, pH 1.2 to pH 3 solutions were sampled weekly initially and sampling time corrections were made if necessary after the first 2 data points were collected.
Studies were conducted in pH 1-7 buffer solutions and at 5° C., 25° C., 30° C. and 37° C.

[3] = rat, radioactive markers in urine
[4] = safety and tolerability of single oral doses of BH4 in healthy subjects; format: in vivo, human
Method: Safety was evaluated for all subjects who take at least one dose of BH4.
Safety was evaluated by recording the incidence of adverse events, changes in 12-lead ECG parameters, vital signs and physical examination results, and changes in baseline in laboratory test values.
In this study, an adverse event (AE) was defined as any untoward medical occurrence in a subject or clinical investigation subject administered BH4, at any dose, whether or not it has a causal relationship with the event. An AE can therefore be any unfavorable and unintended sign (including an abnormal laboratory finding), symptom, or disease temporally associated with the use of BH4, whether or not related to BH4. This definition included intercurrent illnesses or injuries and exacerbation (increase in frequency, severity or specificity) of pre-existing conditions.
A serious adverse event (SAE) was defined as any AE that has at least one of the following outcomes: […]

[5] = set-up: species or system rats and monkeys; details: rat, monkey, in vivo
Text: Such variability in absorption of BH4 was also shown in a study described herein on the effect of food on the bioavailability of BH4 in healthy humans.

[6] = pharmacokinetics of sapropterin after a single oral administration in cynomolgus monkeys; format: in vivo, female cynomolgus monkeys; details: monkey, 10 mg/kg oral
Method: A single dose of sapropterin (10 mg/kg) was administered orally to female cynomolgus monkeys (3/group) under fasting conditions.

physchem [7] = format: physicochemical
Text: Although there is ample literature describing increased bioavailability in fed conditions, this food effect is typically seen with lipophilic (i.e., lipid soluble) water-insoluble drugs and not usually with high water soluble active substance such as BH4. The usual explanation for increases in bioavailability under fed conditions for lipophilic compounds is that high fat meals help solubilize the drug since “like dissolves like” and this makes it available for absorption. Another possible explanation is that high fat meals stimulate the secretion of bile acids which are natural bio-surfactants that help solubilize and emulsify the fats we eat to aid their digestion. These bile acids are also thought to solubilize water-insoluble compounds thereby making them available for absorption. […] Therefore the enhancement of its bioavailability by high fat, high-energy meals is not consistent with such known mechanism.

[8] = water adsorption (hygroscopicity) of crystal forms; format: physicochemical; details: dihydrochloride

median and range for Tmax, dissolved vs intact tablets ([1]; 10 mg/kg oral, fasted): essentially the same
upper limits of 90% confidence intervals of intact-to-dissolved ratios ([1]; 10 mg/kg oral, fasted): greater than 125%
increase in the extent of absorption, intact tablet compared to dissolved tablet ([1]; 10 mg/kg oral, healthy subjects): ~20%
average increase in Cmax and AUC, intact tablet relative to dissolved tablets ([1]; fasted conditions): 20%
increase in Cmax and AUC after a high fat/high calorie meal ([1]; intact tablet): approximately 30%
median and range for Tmax, fed vs fasted conditions ([1]; intact tablet 10 mg/kg): essentially the same
upper limits of 90% confidence intervals of fed-to-fasted ratios ([1]; intact tablet 10 mg/kg): greater than 125%
increase in Cmax and AUC after a high fat/high calorie meal ([1]; tablet dissolved in water): ~80%
dependence of rate of degradation of BH4 (physchem [2]): concentration-dependent
effect of sparging on stability of BH4 (physchem [2]): substantially enhanced the stability
stability of BH4 at pH 3.1 (physchem [2]; 1 mg/mL, pH 3.1): over 3 hours
Estimated t1/2 Based on t1/2 Obtained at pH 3 (Min) (physchem [2]; pH 2): 177690.0 (123.4 days) Min
Estimated t1/2 Based on t1/2 Obtained at pH 3 (Min) (physchem [2]; pH 3): 17769.0 (12.34 days) Min
half-life (physchem [2]; pH 3): 12.3 days
half-life (physchem [2]; pH 3.1): 12.3 days
Estimated t1/2 Based on t1/2 Obtained at pH 3 (Min) (physchem [2]; pH 4): 1776.9 (1.23 days) Min
Estimated t1/2 Based on t1/2 Obtained at pH 3 (Min) (physchem [2]; pH 5): 177.7 (0.12 days) Min
Estimated t1/2 Based on t1/2 Obtained at pH 3 (Min) (physchem [2]; pH 6): 17.7 (0.01 days) Min
half-life (physchem [2]; pH 6.8): ~0.0104 days
Estimated t1/2 Based on t1/2 Obtained at pH 3 (Min) (physchem [2]; pH 7): 1.8 Min
rate of GI absorption [3]: 8.8%
BH4 absorbed in the gut [5]: 8-11%
ratio of reduced biopterin to total biopterins during the test period [6]: nearly constant
solubility (physchem [7]): > 1000 mg/mL
Compound: C[C@H](O)[C@H](O)[C@H]1CNc2nc(N)[nH]c(=O)c2N1 [BH4, 6R-(L-erythro)-5,6,7,8-tetrahydrobiopterin]
study exit assessments, ECG and physical examination evaluations ([4]; human, in vivo): no clinically significant findings
adverse events assessed as mild ([4]; of 9 AEs): 8 AEs
adverse events assessed as moderate in severity ([4]; of 9 AEs): 1 AEs
events judged possibly related to the study drug ([4]; of 9 AEs): 4 events
events judged unrelated to the study drug ([4]; of 9 AEs): five
subjects reporting adverse events ([4]; single 10 mg/kg oral doses): 5 subjects
total adverse events reported ([4]; single 10 mg/kg oral doses): 9 adverse events
serious adverse events (SAEs) ([4]; single 10 mg/kg oral doses, healthy subjects, 10 mg/kg): no serious adverse events; also recorded: no AEs considered serious

water content adsorbed (hygroscopicity) [8]: about 3 percent by weight
Compound: C[C@H](O)[C@H](O)[C@H]1CNc2nc(N)[nH]c(=O)c2N1.Cl.Cl [Polymorph A, (6R)-L-erythro-tetrahydrobiopterin dihydrochloride]

water content adsorbed (hygroscopicity) [8]: about 3 percent by weight
Compound: C[C@H](O)[C@H](O)[C@H]1CNc2nc(N)[nH]c(=O)c2N1.Cl.Cl [Polymorph F, (6R)-L-erythro-tetrahydrobiopterin dihydrochloride]

water content adsorbed (hygroscopicity) [8]: about 2.0 percent by weight
Compound: C[C@H](O)[C@H](O)[C@H]1CNc2nc(N)[nH]c(=O)c2N1.Cl.Cl [Polymorph K, (6R)-L-erythro-tetrahydrobiopterin dihydrochloride]
